Experimental data published in publication PMC2676897 (Bioorganic & medicinal chemistry letters, 2009).

Legend:
[1] = system: MDA-MB231 cells; assay: Growth inhibition of ER-negative MDA-MB231 cells, MTS assay; conditions: for growth inhibitory activity: ER-negative MDA-MB231 cells, 72 h, MTS; for toxicity to cells: MDA-MB231 cells, 25 μM
[2] = system: ATCC MCF7 cells (ERα expressing); assay: Inhibition of E2-induced proliferation, MTS assay, ATCC MCF7 expressing only ERα; assay type: cell-based, human; conditions: 1 nM E2, 6 days

Row | GI50, inhibition of E2-induced proliferation [2] | SMILES | growth inhibitory activity [1] | toxicity to cells [1]
1 |  | O=C(c1ccc(OCCN2CCCCC2)cc1)c1c(-c2ccc(O)cc2)sc2cc(O)ccc12 [RAL, Raloxifene, reference compound] | did not demonstrate significant growth inhibitory activity | toxicity
2 | did not demonstrate inhibition | CCCC[C@@H]1C[C@H]1[C@@H](NC(=O)c1ccccc1)c1ccc(-c2ccc(O)cc2)cc1F [Compound 11b] | did not demonstrate significant growth inhibitory activity | toxicity
3 |  | CCCC[C@@H]1C[C@H]1[C@@H](N)c1ccc(-c2ccc(O)cc2)cc1F.Cl [Compound 13] | did not demonstrate significant growth inhibitory activity | toxicity
